Laboratory results reported in a melting point compilation (Tetko et al.; mined from patent text by program, amines drawn as free bases though some values may be those of a salt).

Structure (SMILES) | melting point [°C]
COc1ccc(C(=O)c2c(O)c3ccccc3[nH]c2=O)cc1OC | 235 to 236
C=CCc1c(C(F)(F)F)[nH]n(-c2ccc(Br)c(Cl)c2)c1=O | 117
CC(c1c[nH]cn1)C(N)CO (configuration not stated) | 168
O=C(O)C(CCC(=O)N1CCOCC1)Cc1cccc2ccccc12 (configuration not stated) | 130 to 135
Cc1ccc(F)c(NS(=O)(=O)c2n[nH]c(NC=O)n2)c1F | 270 to 273
CN(C)C1CCc2[nH]c3cc(OCc4ccccc4)ccc3c2C1 (configuration not stated) | 237 to 239
O=C(CNC(=O)OCc1ccc([N+](=O)[O-])cc1)Oc1ccc(C(=O)OCI)cc1 | 146 to 148
c1ccc(-c2cc3n(n2)Cc2ccccc2-3)cc1 | 183 to 184
COc1cc2c(cc1C)CCC=C2c1ncc[nH]1 | 197 to 229
O=C(CCC(=O)N(CCCOc1ccc(C(=O)O)cc1)c1ccc(Cl)cc1)Nc1ccc(Cl)cc1 | 197 to 201
Cc1ccc(OC(=CC(=O)c2ccc(Br)cc2)C(=O)c2ccc(Br)cc2)cc1 | 137 to 138
CC(=O)OC(CCl)c1cccnc1S(N)(=O)=O (configuration not stated) | 146 to 147
Cc1nc2cc(NC(=O)c3cc4cccnc4n3Cc3cccc(F)c3)ccc2n1C | 242 to 244
O=C(Cc1cccs1)c1c(O)c2cccnc2n(-c2ccccc2)c1=O | 197 to 199
COC1=NS(=O)N=C1NCCCCc1ncc(Br)cc1N (configuration not stated) | 118 to 120
CC(C)(C)C(=O)c1cnn2c1NCCC2 | 169 to 170
COc1ccc2c(c1)OC(C(=O)O)Oc1ccccc1C2 (configuration not stated) | 149 to 153
O=C1CC(=O)C2C3C=CC(CC3)C12 (configuration not stated) | 264
C[C@@H]1OC(=O)N(C(=O)O)[C@H]1c1ccc(F)c(F)c1 (relative stereo) | 80 to 83
Cc1c(CC(=O)OCCCO)cc(-c2ccc(S(C)(=O)=O)cc2)n1-c1ccccc1 | 108 to 110
C#Cc1ccc(C(=O)OC)nc1 | 40 to 45
O=C(O)C(CCCCc1ccccc1)Oc1cccc2ccccc12 (configuration not stated) | 91 to 94
C=COCCn1cccc1-c1nc(-c2ccc(OC)cc2)c(-c2ccc(OC)cc2)s1 | 81.5 to 84.5

Structure (SMILES) | melting point [°C]
O=C(c1cc(=O)c2cc(O)ccc2[nH]1)N1CCC(Cc2ccc(F)cc2)CC1 | 190
COC(=O)c1ccc(C(=O)NN)cn1 | 177 to 180
CCCOC(C)c1ccc(-c2ccc(C(=O)O)cc2)cc1 (single isomer, unassigned; (+)) | 172
CC(C)n1nc(-c2cc(C#N)c(=O)[nH]c2-c2ccccc2)ccc1=O | > 250
O=C1Nc2cc(C(F)(F)F)cc(C(F)(F)F)c2C1(O)c1cc(Cl)ccc1O (configuration not stated) | 191 to 193
O=C1C=C(C2CCC(c3ccc(Cl)cc3)CC2)C(=O)c2ccccc21 (configuration not stated) | 147 to 149
COc1ccc(CC(=S)N2CCOCC2)cc1 | 145 to 147
CC(NC(=O)Cc1cc(F)cc(F)c1)C(=O)NC1C(=O)NC(Cc2ccccc2)c2ccccc21 (configuration not stated) | 106 to 107
O=C(O)CN1C(=O)C(=Cc2ccc(OCc3ccc(F)cc3F)c(OCc3ccccc3)c2)SC1=S | 236 to 239
CCc1nc2c(N)nc3ccc(OCc4ccccc4)cc3c2n1CCCCNC(=O)N1CCOCC1 | 190 to 191
Cc1cc(-c2nnc3c4ccccc4c(OCc4nncn4C)nn23)no1 | 261 to 263
N#CCc1ccc(C2CCCCC2)cc1 | 48 to 49
O=C(O)C(O)(c1cccs1)c1cccs1 | 84
O=C1OC(CN2CCC3(CC2)C(=O)NCN3c2ccccc2)CN1c1ccccc1 (configuration not stated) | 166 to 168
COc1cc(OCc2nc(-c3ccco3)oc2C)ccc1C=O | 111 to 112
COc1ccc(-c2nc3cc4c(cc3[nH]2)C(C)(C)CC(=O)N4)cc1 | 235 to 238
Brc1ccc(N2CCN(CCCc3[nH]nc4c3CCCC4)CC2)cc1 | 145 to 147
Clc1ccc(Nc2nnc(Cc3ccncc3)c3c2CCCC3)cc1 | 258 to 261
CCOC(=O)/C=C/c1c(-c2ccc(F)cc2)n(CCF)c(=O)c2ccccc12 | 136 to 137
CC(=O)OC1CSC(Oc2ccc(-c3cccnc3F)nc2)C(OC(C)=O)C1OC(C)=O (configuration not stated) | 153
CCNC(=O)c1c(Cl)cc(C(C)(C)C)cc1[Si](C)(C)C | 124 to 126
O=C(Cn1ncc(-c2ccccc2)c1-c1ccccc1)NCCN1CCCC1 | 80 to 84

Now from value to compound:

melting point [°C] | Structure (SMILES)
70 | CC(O)c1cc(Cl)cc(Cl)c1O (configuration not stated)
163 to 164 | Cc1coc(C)c1N(C)c1cc(C(=O)N(C)C)cc2c1nc(C)n2C
131 to 135 | O=C(Nc1ccc(F)cc1F)c1cncc(Sc2cccc([N+](=O)[O-])c2)n1
234 to 236 | Cc1cc(-c2nnc3c4ccccc4c(OCc4ccccn4)nn23)no1
176 | CS(=O)(=O)c1ccc(C(=O)c2ccc(Cl)cc2)cc1
196 to 198 | N#Cc1c(N)cccc1[N+](=O)[O-]
117 to 120 | COc1ccc(C(=O)c2ccccc2Cl)c(Cl)c1Cl
203 to 204 | COc1ccc(N2C(=O)C3=C(CCCC3)C2CC(=O)O)cc1 (configuration not stated)
120 to 122 | Cc1ccc2c(c1)CC(=S)N2
174 to 179 | Nc1nc(-c2ccc(CCCCN3CCN(c4cccc(C(F)(F)F)c4)CC3)cc2)cs1
245 to 247 | COc1ccc(CNc2nc3ccccc3c3[nH]c(C4CCCC4)nc23)cc1
55 to 57 | CCC(=O)CSc1cc(C(C)(C)C)c(O)c(C(C)(C)C)c1
109 to 111 | CC(C)c1cccc(C(C)C)c1NC(=O)CN1CCCN(CCCSc2nc3ccccc3o2)CC1
97 | Cc1cccc(-c2nc3ccc(OCCCCl)cc3n2Cc2ccccc2)c1
118 | CC(=O)CCCN1CC[C@H](CNC(=O)c2cc(Cl)c(N)c3c2OCC3)[C@H](O)C1 (relative stereo)
154 to 155 | O=C1C(=Cc2ccccc2N2CCNCC2)SCCN1c1ccc(Cl)c(Cl)c1
148 to 152 | C=C(C)C(=O)N(NC(=O)c1ccccc1)C(C)(C)C
201 to 202 | Oc1cccc(-c2cn3ccc4ccccc4c3n2)c1
213 to 215 | CSc1sc(-c2cn[nH]c2)c2c1C(=O)CC(C)(C)C2

melting point [°C] | Structure (SMILES)
78 to 80 | CCOC(=O)Cc1cccc(Sc2ccccc2Cl)c1[N+](=O)[O-]
51 to 53 | ClC=C(Cl)n1c2ccccc2c2ccccc21
59 to 60 | CCCCOC(=O)Nc1cccc(C(C)=O)c1
96 | O=[N+]([O-])c1ccccc1OCC(O)CO (configuration not stated)
180 to 182 | Cc1cc(F)cc(-c2ccc3c(c2)C2(C=N3)CCCCC2)c1
151 to 155 | O=C1c2ccccc2CN1C1CCN(c2ccc(Cc3ccccc3)cc2)CC1
167 to 169 | Cc1ccc(C(=S)c2cccc3c2NC(=O)C3)cc1
77.5 to 78 | CCCC(SCC(=O)O)c1cc2c(cc1C)OCO2 (configuration not stated)
236 | COC(=O)c1ccc2c(c1)S(=O)(=O)c1ccccc1NC2
80 | CCN(CC)CC(C)N1c2ccccc2Sc2ccc(C(=S)NCCC(C)C)cc21 (racemic)
> 230 | COC(=O)c1ccc(S(=O)(=O)n2c(=O)[nH]c3cc(Cl)ccc3c2=O)cc1
169 | CCC(=S)NC[C@H]1CN(c2ccc(N3CCN(C(=O)CCC(=O)c4ccc(CN(C)C)cc4)CC3)c(F)c2)C(=O)O1
142 to 148 | CN(C)C=C(C(=O)c1ccc(Cl)cc1)c1ccccc1[N+](=O)[O-]
167 to 169 | Cc1sc2ncc(C(O)CCCc3ccccc3)n2c1C (configuration not stated)
260 to 261 | NS(=O)(=O)c1ccc(-n2nc(C(F)(F)F)cc2-c2nc3ccc(F)cc3s2)cc1
107 to 110 | CCOC(=O)c1c(Cl)nn(C)c1S(=O)(=O)NC(=O)OC
122 | O=C(O)Cc1ccc(COc2cccc(-c3c(-c4ccccc4)cnc4c(C(F)(F)F)cccc34)c2)cc1
215 to 217 | Cc1c(-c2ccccc2)c(N2CC[C@H](N(C)C)C2)c2oc(N3CCOCC3)nc2c1C#N
257 to 260 | COc1cccc2c(=O)[nH]nc(C)c12

melting point [°C] | Structure (SMILES)
181 to 183 | CCOC=Nc1[nH]nc(Nc2cccc(OC)c2)c1C#N
95 to 98 | COc1ccc(S(=O)(=O)n2c(CCC(=O)O)cc3cc(Cl)ccc32)cc1
194 to 195 | O=C(Cc1ccc(OCc2ccccc2)cc1)Nc1nnc(-c2cccc(Oc3cccc(C(F)(F)F)c3)c2)s1
254 to 256 | O=C(O)CN1C(=O)C(=Cc2ccccc2)SC1=S
277 to 279 | CC(=O)Nc1cc2cc([N+](=O)[O-])ccc2oc1=O
116 to 118 | CCCCCCCCCCCCCCOc1ccc(CC(=O)Nc2cccc(CBr)c2)cc1
46 to 49 | CC1(C)CC(=O)C1(Br)CC(Cl)(Cl)Cl (configuration not stated)
211 to 212 | CC(C)S(=O)(=O)n1c(N)nc2ccc(C(=CC(N)=O)c3ccccc3)cc21
152 to 154 | COc1cc(C(C)C)c2c(c1)S(=O)(=O)N(COC(=O)c1c(Cl)ccc(O)c1Cl)C2=O
> 175 | O=c1n(O)ccn1Cc1ccc(OCc2ccccc2)cc1
85 to 88 | CCOC(=O)C(CNC(=O)c1ccccc1)C(=O)C(F)(F)F (configuration not stated)
206 to 210 | CCOC(=O)c1c2n(c3c(F)c(F)c(F)cc3c1=O)C(C)S2 (configuration not stated)
67.9 to 70.2 | COC(=O)C(=O)c1ccc(SC)c(Cl)c1
155 to 158 | Brc1cc(C#Cc2ccccc2)c(Br)cc1C#Cc1ccccc1
199 to 201 | CN1CCN(C(=O)Cn2nc(-c3ccccc3O)nc2-c2ccccc2O)CC1
123 to 124 | O=S(=O)(c1ccccc1)N1CCC(C(=Nc2ccc(F)cc2)c2ccc(F)cc2)CC1
165 | CCOC(=O)C1=C(C)NN=C(C(=O)OC)C1c1ccccc1C (configuration not stated)
179 to 180 | O=C1O[C@@H](CO)CN1c1ccc(-n2ccnn2)c(F)c1
82 to 86 | Cc1cc(C)c(S(=O)(=O)NC(CNc2ccccc2)C(F)(F)F)c(C)c1 (configuration not stated)
